Data published in PubChem BioAssay (NCI).
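Each compound was tested at five concentrations against cells in 96-well plates for 48 hours. Abbreviation: GI50, concentration required for 50% inhibition of growth. At the TGI there is no net growth.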

Experiments:
Assay in all cases: NCI-60 cell line screen, 48 h
786-0 renal = test system: 786-0 renal
A498 renal = test system: A498 renal
A549 NSCLC = test system: A549 NSCLC
ACHN renal = test system: ACHN renal
BT-549 breast = test system: BT-549 breast
CAKI-1 renal = test system: CAKI-1 renal
CCRF-CEM leukemia = test system: CCRF-CEM leukemia
COLO 205 colon = test system: COLO 205 colon
DU-145 prostate = test system: DU-145 prostate
EKVX NSCLC = test system: EKVX NSCLC
HCC-2998 colon = test system: HCC-2998 colon
HCT-116 colon = test system: HCT-116 colon
HCT-15 colon = test system: HCT-15 colon
HL-60(TB) leukemia = test system: HL-60(TB) leukemia
HOP-62 NSCLC = test system: HOP-62 NSCLC
HS 578T breast = test system: HS 578T breast
HT29 colon = test system: HT29 colon
IGROV1 ovarian = test system: IGROV1 ovarian
K-562 leukemia = test system: K-562 leukemia
KM12 colon = test system: KM12 colon
LOX IMVI melanoma = test system: LOX IMVI melanoma
M14 melanoma = test system: M14 melanoma
MALME-3M melanoma = test system: MALME-3M melanoma
MCF7 breast = test system: MCF7 breast
MDA-MB-231 breast = test system: MDA-MB-231 breast
MDA-MB-435 = test system: MDA-MB-435
MOLT-4 leukemia = test system: MOLT-4 leukemia
NCI-H226 lung = test system: NCI-H226 lung
NCI-H23 lung = test system: NCI-H23 lung
NCI-H460 lung = test system: NCI-H460 lung
NCI-H522 lung = test system: NCI-H522 lung
NCI/ADR-RES ovarian = test system: NCI/ADR-RES ovarian
OVCAR-3 ovarian = test system: OVCAR-3 ovarian
OVCAR-4 ovarian = test system: OVCAR-4 ovarian
OVCAR-5 ovarian = test system: OVCAR-5 ovarian
OVCAR-8 ovarian = test system: OVCAR-8 ovarian
PC-3 prostate = test system: PC-3 prostate
RPMI-8226 leukemia = test system: RPMI-8226 leukemia
RXF 393 renal = test system: RXF 393 renal
SF-268 CNS = test system: SF-268 CNS
SF-295 CNS = test system: SF-295 CNS
SF-539 CNS = test system: SF-539 CNS
SK-MEL-2 melanoma = test system: SK-MEL-2 melanoma
SK-MEL-28 melanoma = test system: SK-MEL-28 melanoma
SK-MEL-5 melanoma = test system: SK-MEL-5 melanoma
SK-OV-3 ovarian = test system: SK-OV-3 ovarian
SN12C renal = test system: SN12C renal
SNB-19 CNS = test system: SNB-19 CNS
SNB-75 CNS = test system: SNB-75 CNS
SR leukemia = test system: SR leukemia
SW-620 colon = test system: SW-620 colon
T-47D breast = test system: T-47D breast
TK-10 renal = test system: TK-10 renal
U251 CNS = test system: U251 CNS
UACC-257 melanoma = test system: UACC-257 melanoma
UACC-62 melanoma = test system: UACC-62 melanoma
UO-31 renal = test system: UO-31 renal

Compound: C[C@@]12CCC[C@@](C)(C(=O)O)C1CC[C@]13C[C@@](O)(CO)[C@](O)(CCC12)C3 (some centres undefined)
- GI50 (786-0 renal): > 100 µM
- TGI (786-0 renal): > 100 µM
- GI50 (A498 renal): > 100 µM
- TGI (A498 renal): > 100 µM
- GI50 (A549 NSCLC): > 100 µM
- TGI (A549 NSCLC): > 100 µM
- GI50 (ACHN renal): > 100 µM
- TGI (ACHN renal): > 100 µM
- GI50 (BT-549 breast): > 100 µM
- TGI (BT-549 breast): > 100 µM
- GI50 (CAKI-1 renal): > 100 µM
- TGI (CAKI-1 renal): > 100 µM
- GI50 (CCRF-CEM leukemia): > 100 µM
- TGI (CCRF-CEM leukemia): > 100 µM
- GI50 (COLO 205 colon): > 100 µM
- TGI (COLO 205 colon): > 100 µM
- GI50 (DU-145 prostate): > 100 µM
- TGI (DU-145 prostate): > 100 µM
- GI50 (EKVX NSCLC): > 100 µM
- TGI (EKVX NSCLC): > 100 µM
- GI50 (HCC-2998 colon): > 100 µM
- TGI (HCC-2998 colon): > 100 µM
- GI50 (HCT-116 colon): > 100 µM
- TGI (HCT-116 colon): > 100 µM
- GI50 (HCT-15 colon): > 100 µM
- TGI (HCT-15 colon): > 100 µM
- GI50 (HL-60(TB) leukemia): > 100 µM
- TGI (HL-60(TB) leukemia): > 100 µM
- GI50 (HOP-62 NSCLC): > 100 µM
- TGI (HOP-62 NSCLC): > 100 µM
- GI50 (HS 578T breast): > 100 µM
- TGI (HS 578T breast): > 100 µM
- GI50 (HT29 colon): > 100 µM
- TGI (HT29 colon): > 100 µM
- GI50 (IGROV1 ovarian): > 100 µM
- TGI (IGROV1 ovarian): > 100 µM
- GI50 (K-562 leukemia): > 100 µM
- TGI (K-562 leukemia): > 100 µM
- GI50 (KM12 colon): > 100 µM
- TGI (KM12 colon): > 100 µM
- GI50 (LOX IMVI melanoma): > 100 µM
- TGI (LOX IMVI melanoma): > 100 µM
- GI50 (M14 melanoma): > 100 µM
- TGI (M14 melanoma): > 100 µM
- GI50 (MALME-3M melanoma): > 100 µM
- TGI (MALME-3M melanoma): > 100 µM
- GI50 (MCF7 breast): > 100 µM
- TGI (MCF7 breast): > 100 µM
- GI50 (MDA-MB-231 breast): > 100 µM
- TGI (MDA-MB-231 breast): > 100 µM
- GI50 (MDA-MB-435): > 100 µM
- TGI (MDA-MB-435): > 100 µM
- GI50 (MOLT-4 leukemia): > 100 µM
- TGI (MOLT-4 leukemia): > 100 µM
- GI50 (NCI-H226 lung): > 100 µM
- TGI (NCI-H226 lung): > 100 µM
- GI50 (NCI-H23 lung): > 100 µM
- TGI (NCI-H23 lung): > 100 µM
- GI50 (NCI-H460 lung): > 100 µM
- TGI (NCI-H460 lung): > 100 µM
- GI50 (NCI-H522 lung): > 100 µM
- TGI (NCI-H522 lung): > 100 µM
- GI50 (NCI/ADR-RES ovarian): > 100 µM
- TGI (NCI/ADR-RES ovarian): > 100 µM
- GI50 (OVCAR-3 ovarian): > 100 µM
- TGI (OVCAR-3 ovarian): > 100 µM
- GI50 (OVCAR-4 ovarian): > 100 µM
- TGI (OVCAR-4 ovarian): > 100 µM
- GI50 (OVCAR-5 ovarian): > 100 µM
- TGI (OVCAR-5 ovarian): > 100 µM
- GI50 (OVCAR-8 ovarian): > 100 µM
- TGI (OVCAR-8 ovarian): > 100 µM
- GI50 (PC-3 prostate): > 100 µM
- TGI (PC-3 prostate): > 100 µM
- GI50 (RPMI-8226 leukemia): > 100 µM
- TGI (RPMI-8226 leukemia): > 100 µM
- GI50 (RXF 393 renal): > 100 µM
- TGI (RXF 393 renal): > 100 µM
- GI50 (SF-268 CNS): > 100 µM
- TGI (SF-268 CNS): > 100 µM
- GI50 (SF-295 CNS): > 100 µM
- TGI (SF-295 CNS): > 100 µM
- GI50 (SF-539 CNS): > 100 µM
- TGI (SF-539 CNS): > 100 µM
- GI50 (SK-MEL-2 melanoma): > 100 µM
- TGI (SK-MEL-2 melanoma): > 100 µM
- GI50 (SK-MEL-28 melanoma): > 100 µM
- TGI (SK-MEL-28 melanoma): > 100 µM
- GI50 (SK-MEL-5 melanoma): > 100 µM
- TGI (SK-MEL-5 melanoma): > 100 µM
- GI50 (SK-OV-3 ovarian): > 100 µM
- TGI (SK-OV-3 ovarian): > 100 µM
- GI50 (SN12C renal): > 100 µM
- TGI (SN12C renal): > 100 µM
- GI50 (SNB-19 CNS): > 100 µM
- TGI (SNB-19 CNS): > 100 µM
- GI50 (SNB-75 CNS): > 100 µM
- TGI (SNB-75 CNS): > 100 µM
- GI50 (SR leukemia): 55.3 µM
- TGI (SR leukemia): > 100 µM
- GI50 (SW-620 colon): > 100 µM
- TGI (SW-620 colon): > 100 µM
- GI50 (T-47D breast): > 100 µM
- TGI (T-47D breast): > 100 µM
- GI50 (TK-10 renal): > 100 µM
- TGI (TK-10 renal): > 100 µM
- GI50 (U251 CNS): > 100 µM
- TGI (U251 CNS): > 100 µM
- GI50 (UACC-257 melanoma): > 100 µM
- TGI (UACC-257 melanoma): > 100 µM
- GI50 (UACC-62 melanoma): > 100 µM
- TGI (UACC-62 melanoma): > 100 µM
- GI50 (UO-31 renal): > 100 µM
- TGI (UO-31 renal): > 100 µM
